Measurements reported in ChEMBL document CHEMBL5678809, “Preclinical characterization of GLPG0634, a selective inhibitor of JAK1, for the treatment of inflammatory diseases” (J Immunol, 2013).
Calls of active or inactive are those of the source. The rule behind the calls is not given here.

Columns and labels:
[1] = target: Tyrosine-protein kinase ABL2 (Homo sapiens) (UniProt P42684); assay: Inhibition of Arg (unknown origin) at 1 uM relative to control
[2] = target: Calcium/calmodulin-dependent protein kinase type 1 (Homo sapiens) (UniProt Q14012); assay: Inhibition of CaMK1 (unknown origin) at 1 uM relative to control
[3] = target: Calcium/calmodulin-dependent protein kinase type IV (Homo sapiens) (UniProt Q16566); assay: Inhibition of CaMK4 (unknown origin) at 1 uM relative to control
[4] = target: Cyclin-dependent kinase 2 (Homo sapiens, UniProt P24941); assay: Inhibition of CDK2 (unknown origin)
[5] = target: Dual specificity protein kinase CLK2 (Homo sapiens) (UniProt P49760); assay: Inhibition of CLK2 (unknown origin) at 1 uM relative to control
[6] = target: Tyrosine-protein kinase Fer (Homo sapiens) (UniProt P16591); assay: Inhibition of Fer (unknown origin) at 1 uM relative to control
[7] = target: Tyrosine-protein kinase Fgr (Homo sapiens) (UniProt P09769); assay: Inhibition of Fgr (unknown origin) at 1 uM relative to control
[8] = target: Vascular endothelial growth factor receptor 3 (Homo sapiens, UniProt P35916); assay: Inhibition of Flt4 (unknown origin)
[9] = target: Serine/threonine-protein kinase haspin (Homo sapiens) (UniProt Q8TF76); assay: Inhibition of Haspin (unknown origin) at 1 uM relative to control
[10] = target: Homeodomain-interacting protein kinase 2 (Homo sapiens, UniProt Q9H2X6); assay: Inhibition of HIPK2 (unknown origin)
[11] = target: Interleukin-1 receptor-associated kinase 4 (Homo sapiens, UniProt Q9NWZ3); assay: Inhibition of IRAK4 (unknown origin)
[12] = target: Serine/threonine-protein kinase 10 (Homo sapiens) (UniProt O94804); assay: Inhibition of LOK (unknown origin) at 1 uM relative to control
[13] = target: Mitogen-activated protein kinase kinase kinase 3 (Homo sapiens, UniProt Q99759); assay: Inhibition of MAP3K3 (unknown origin)
[14] = species on record: Homo sapiens; assay: Inhibition of MRCK (unknown origin) at 1 uM relative to control
[15] = target: Ribosomal protein S6 kinase alpha-4 (Homo sapiens) (UniProt O75676); assay: Inhibition of MSK2 (unknown origin) at 1 uM relative to control
[16] = target: Serine/threonine-protein kinase 3 (Homo sapiens) (UniProt Q13188); assay: Inhibition of MST2 (unknown origin) at 1 uM relative to control
[17] = target: Serine/threonine-protein kinase Nek11 (Homo sapiens) (UniProt Q8NG66); assay: Inhibition of NEK11 (unknown origin) at 1 uM relative to control
[18] = target: Serine/threonine-protein kinase Nek2 (Homo sapiens) (UniProt P51955); assay: Inhibition of NEK2 (unknown origin) at 1 uM relative to control
[19] = target: Serine/threonine-protein kinase PAK 4 (Homo sapiens) (UniProt O96013); assay: Inhibition of PAK4 (unknown origin) at 1 uM relative to control
[20] = target: Serine/threonine-protein kinase PAK 6 (Homo sapiens, UniProt Q9NQU5); assay: Inhibition of PAK6 (unknown origin)
[21] = species on record: Homo sapiens; assay: Inhibition of PDGFR (unknown origin) at 1 uM relative to control
[22] = target: Serine/threonine-protein kinase N2 (Homo sapiens) (UniProt Q16513); assay: Inhibition of PRK2 (unknown origin) at 1 uM relative to control
[23] = target: SRSF protein kinase 2 (Homo sapiens) (UniProt P78362); assay: Inhibition of SRPK2 (unknown origin) at 1 uM relative to control
[24] = target: Serine/threonine-protein kinase 33 (Homo sapiens) (UniProt Q9BYT3); assay: Inhibition of STK33 (unknown origin) at 1 uM relative to control
[25] = target: Tyrosine-protein kinase SYK (Homo sapiens, UniProt P43405); assay: Inhibition of SYK (unknown origin)
[26] = target: Serine/threonine-protein kinase VRK2 (Homo sapiens) (UniProt Q86Y07); assay: Inhibition of VRK2 (unknown origin) at 1 uM relative to control
[27] = target: Serine/threonine-protein kinase WNK2 (Homo sapiens) (UniProt Q9Y3S1); assay: Inhibition of WNK2 (unknown origin) at 1 uM relative to control
[28] = target: Serine/threonine-protein kinase WNK3 (Homo sapiens) (UniProt Q9BYP7); assay: Inhibition of WNK3 (unknown origin) at 1 uM relative to control
[29] = Tmax in CD-1 mouse at 5 mg/kg, po measured upto 24 hrs by LC-MS analysis; format: ADME, organism-based; details: in vivo
[30] = Oral bioavailability in CD-1 mouse at 5 mg/kg measured upto 24 hrs by LC-MS analysis; format: ADME, organism-based; details: in vivo
[31] = Volume of distribution at steady state in Sprague-Dawley rat at 1 mg/kg, iv measured upto 8 hrs by LC-MS analysis; format: ADME, organism-based; details: in vivo, read-out: Vdss
[32] = test system: Rattus norvegicus; assay: In vivo inhibition of JAK1 in Sprague-Dawley rat assessed as reduction in MX2 mRNA level at 1 to 10 mg/kg, po measured for 24 hrs by RT-PCR analysis; format: functional, organism-based; details: dose 1-10 mg/kg
[33] = test system: Rattus norvegicus; assay: Antiarthritic activity against collagen-induced arthritis Dark Agouti rat model assessed as reduction in inflammatory infiltration at 1 mg/kg, po administered 3 times a week and measured on day 7; format: functional, organism-based; details: time 7.0 day
[34] = test system: Mus musculus; assay: Antiarthritic activity against collagen-induced arthritis DBA/1J mouse model assessed as reduction in infiltration of CD3 positive T cells in paw at 50 mg/kg, po administered twice daily for 14 days by immunohistochemistry analysis; format: functional, organism-based; details: T-cell, time 14.0 day
[35] = test system: Mus musculus; assay: Antiarthritic activity against collagen-induced arthritis DBA/1J mouse model assessed as reduction in IL-1beta expression at 50 mg/kg, po measured for 4 hrs; format: functional, organism-based
[36] = test system: Mus musculus; assay: Antiarthritic activity against collagen-induced arthritis DBA/1J mouse model assessed as reduction in RANKL expression at 50 mg/kg, po measured for 4 hrs; format: functional, organism-based
[37] = test system: Mus musculus; assay: Antiarthritic activity against collagen-induced arthritis DBA/1J mouse model assessed as MDC level in serum at 50 mg/kg, po measured for 4 hrs by luminex analysis (reference value: 463.8 +/- 32.7 ng/ml); format: functional
[38] = test system: Mus musculus; assay: Antiarthritic activity against collagen-induced arthritis DBA/1J mouse model assessed as KC/GRO level in serum at 50 mg/kg, po measured for 4 hrs by luminex analysis (reference value: 73.6 +/- 18.6 ng/ml); format: functional
[39] = test system: Mus musculus; assay: Antiarthritic activity against collagen-induced arthritis DBA/1J mouse model assessed as reduction in MX1 level in whole blood at 50 mg/kg, po measured for 2 weeks by luminex analysis; format: functional, organism-based
[40] = test system: Mus musculus; assay: Antiarthritic activity against collagen-induced arthritis DBA/1J mouse model assessed as reduction in MX2 level in whole blood at 50 mg/kg, po measured for 2 weeks by luminex analysis; format: functional, organism-based

Chain of Serine/threonine-protein kinase WNK3 (Homo sapiens) (Q9BYP7 whole entry): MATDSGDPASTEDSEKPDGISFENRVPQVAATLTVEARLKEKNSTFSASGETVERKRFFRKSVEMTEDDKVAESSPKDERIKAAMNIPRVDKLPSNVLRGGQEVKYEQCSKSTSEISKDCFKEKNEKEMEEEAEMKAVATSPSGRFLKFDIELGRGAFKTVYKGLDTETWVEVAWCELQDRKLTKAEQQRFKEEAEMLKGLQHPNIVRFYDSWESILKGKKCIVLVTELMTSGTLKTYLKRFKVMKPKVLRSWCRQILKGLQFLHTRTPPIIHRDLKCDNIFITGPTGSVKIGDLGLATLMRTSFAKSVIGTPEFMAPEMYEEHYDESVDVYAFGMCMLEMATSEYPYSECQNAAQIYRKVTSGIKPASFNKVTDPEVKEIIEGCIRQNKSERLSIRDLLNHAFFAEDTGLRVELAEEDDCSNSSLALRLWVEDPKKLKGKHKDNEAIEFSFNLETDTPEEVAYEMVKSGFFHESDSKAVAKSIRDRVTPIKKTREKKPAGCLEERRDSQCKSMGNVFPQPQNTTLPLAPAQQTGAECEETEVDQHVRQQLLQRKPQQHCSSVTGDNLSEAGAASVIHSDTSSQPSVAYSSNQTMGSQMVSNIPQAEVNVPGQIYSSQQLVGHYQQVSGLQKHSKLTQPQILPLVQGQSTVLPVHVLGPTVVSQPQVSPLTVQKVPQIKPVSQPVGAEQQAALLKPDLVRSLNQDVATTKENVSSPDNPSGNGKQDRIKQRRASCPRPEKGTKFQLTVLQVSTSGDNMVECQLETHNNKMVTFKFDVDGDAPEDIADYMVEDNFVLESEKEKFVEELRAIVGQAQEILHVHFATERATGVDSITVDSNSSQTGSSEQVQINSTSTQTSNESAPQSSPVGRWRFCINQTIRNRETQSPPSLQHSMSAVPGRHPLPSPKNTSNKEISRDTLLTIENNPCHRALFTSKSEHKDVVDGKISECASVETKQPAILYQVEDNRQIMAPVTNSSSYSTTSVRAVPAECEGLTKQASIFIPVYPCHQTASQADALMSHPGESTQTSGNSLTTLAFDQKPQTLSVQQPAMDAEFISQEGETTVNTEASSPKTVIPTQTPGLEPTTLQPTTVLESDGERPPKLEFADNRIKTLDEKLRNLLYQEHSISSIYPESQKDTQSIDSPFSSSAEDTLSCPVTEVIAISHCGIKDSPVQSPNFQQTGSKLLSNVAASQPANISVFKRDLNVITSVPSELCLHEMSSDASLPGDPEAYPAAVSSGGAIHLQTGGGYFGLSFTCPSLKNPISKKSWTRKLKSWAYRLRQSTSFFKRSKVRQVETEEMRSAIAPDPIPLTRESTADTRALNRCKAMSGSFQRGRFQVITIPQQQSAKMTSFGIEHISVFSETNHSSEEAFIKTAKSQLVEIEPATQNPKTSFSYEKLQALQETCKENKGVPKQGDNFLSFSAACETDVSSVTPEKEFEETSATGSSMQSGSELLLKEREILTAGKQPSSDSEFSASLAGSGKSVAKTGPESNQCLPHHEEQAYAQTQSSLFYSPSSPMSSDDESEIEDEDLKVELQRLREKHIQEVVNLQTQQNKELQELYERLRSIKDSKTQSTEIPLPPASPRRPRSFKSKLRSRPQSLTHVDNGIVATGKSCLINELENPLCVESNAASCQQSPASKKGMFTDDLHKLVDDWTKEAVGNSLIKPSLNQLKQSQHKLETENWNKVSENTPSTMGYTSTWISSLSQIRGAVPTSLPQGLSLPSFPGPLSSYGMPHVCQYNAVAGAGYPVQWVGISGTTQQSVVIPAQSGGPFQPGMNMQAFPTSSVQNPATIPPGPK
Chain of Serine/threonine-protein kinase Nek2 (Homo sapiens) (P51955 whole entry): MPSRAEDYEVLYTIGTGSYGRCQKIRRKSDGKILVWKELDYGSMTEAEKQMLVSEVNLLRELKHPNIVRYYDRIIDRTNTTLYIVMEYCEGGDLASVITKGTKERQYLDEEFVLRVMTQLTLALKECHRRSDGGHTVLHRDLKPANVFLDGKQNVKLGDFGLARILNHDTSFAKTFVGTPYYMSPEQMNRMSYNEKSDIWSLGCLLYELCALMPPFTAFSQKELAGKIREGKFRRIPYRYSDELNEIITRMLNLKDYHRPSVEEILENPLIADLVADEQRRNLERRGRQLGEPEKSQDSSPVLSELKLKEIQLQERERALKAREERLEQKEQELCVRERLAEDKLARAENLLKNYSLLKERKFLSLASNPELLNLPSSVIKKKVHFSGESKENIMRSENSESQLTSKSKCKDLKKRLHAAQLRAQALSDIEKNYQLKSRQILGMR
Chain of Tyrosine-protein kinase ABL2 (Homo sapiens) (P42684 whole entry): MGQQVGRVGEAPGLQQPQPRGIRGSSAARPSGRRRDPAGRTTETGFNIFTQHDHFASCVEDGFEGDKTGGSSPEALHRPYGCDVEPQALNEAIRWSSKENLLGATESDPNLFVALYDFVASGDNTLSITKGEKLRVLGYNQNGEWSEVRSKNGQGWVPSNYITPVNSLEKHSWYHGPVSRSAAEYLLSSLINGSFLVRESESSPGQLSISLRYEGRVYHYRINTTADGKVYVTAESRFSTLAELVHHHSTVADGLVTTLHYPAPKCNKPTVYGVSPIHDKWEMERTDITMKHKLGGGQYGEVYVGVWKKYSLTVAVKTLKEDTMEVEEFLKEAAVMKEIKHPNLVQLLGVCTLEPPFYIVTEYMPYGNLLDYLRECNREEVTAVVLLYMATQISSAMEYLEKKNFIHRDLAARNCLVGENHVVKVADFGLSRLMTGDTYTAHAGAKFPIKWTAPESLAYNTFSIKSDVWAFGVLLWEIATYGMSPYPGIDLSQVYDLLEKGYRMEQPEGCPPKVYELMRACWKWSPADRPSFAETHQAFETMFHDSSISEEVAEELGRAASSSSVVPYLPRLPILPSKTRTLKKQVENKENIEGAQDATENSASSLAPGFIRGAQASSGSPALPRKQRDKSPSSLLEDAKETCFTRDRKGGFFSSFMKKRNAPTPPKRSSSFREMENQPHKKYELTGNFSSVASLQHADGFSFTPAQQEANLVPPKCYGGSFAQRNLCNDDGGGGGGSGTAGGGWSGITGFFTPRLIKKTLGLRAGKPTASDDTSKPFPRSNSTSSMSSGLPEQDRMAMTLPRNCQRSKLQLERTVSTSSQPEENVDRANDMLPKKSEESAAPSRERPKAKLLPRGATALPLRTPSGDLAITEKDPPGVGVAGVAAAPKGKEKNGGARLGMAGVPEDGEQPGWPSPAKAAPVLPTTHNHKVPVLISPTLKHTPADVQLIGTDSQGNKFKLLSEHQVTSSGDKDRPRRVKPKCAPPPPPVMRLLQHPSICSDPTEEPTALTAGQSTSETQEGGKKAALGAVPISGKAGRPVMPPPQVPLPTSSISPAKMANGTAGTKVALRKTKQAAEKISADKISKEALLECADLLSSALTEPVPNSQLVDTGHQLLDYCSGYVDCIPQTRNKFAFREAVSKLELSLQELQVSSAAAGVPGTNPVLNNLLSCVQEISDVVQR
Chain of Tyrosine-protein kinase Fgr (Homo sapiens) (P09769 2-529 limits assumed): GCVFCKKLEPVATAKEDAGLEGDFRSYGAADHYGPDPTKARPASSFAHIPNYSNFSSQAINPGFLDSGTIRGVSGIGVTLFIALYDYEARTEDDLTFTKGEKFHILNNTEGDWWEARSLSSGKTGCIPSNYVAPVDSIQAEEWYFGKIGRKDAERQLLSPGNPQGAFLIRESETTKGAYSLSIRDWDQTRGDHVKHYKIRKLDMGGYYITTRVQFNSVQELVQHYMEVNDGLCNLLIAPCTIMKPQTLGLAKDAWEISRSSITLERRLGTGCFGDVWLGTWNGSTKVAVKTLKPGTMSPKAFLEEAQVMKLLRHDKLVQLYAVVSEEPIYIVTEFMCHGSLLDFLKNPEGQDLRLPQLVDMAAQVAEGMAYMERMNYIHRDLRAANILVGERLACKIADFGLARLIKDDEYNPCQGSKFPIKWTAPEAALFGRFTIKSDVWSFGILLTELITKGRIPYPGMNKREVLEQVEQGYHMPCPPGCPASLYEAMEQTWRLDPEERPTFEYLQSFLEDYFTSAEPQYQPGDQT
Chain of Calcium/calmodulin-dependent protein kinase type 1 (Homo sapiens) (Q14012 whole entry, looked up): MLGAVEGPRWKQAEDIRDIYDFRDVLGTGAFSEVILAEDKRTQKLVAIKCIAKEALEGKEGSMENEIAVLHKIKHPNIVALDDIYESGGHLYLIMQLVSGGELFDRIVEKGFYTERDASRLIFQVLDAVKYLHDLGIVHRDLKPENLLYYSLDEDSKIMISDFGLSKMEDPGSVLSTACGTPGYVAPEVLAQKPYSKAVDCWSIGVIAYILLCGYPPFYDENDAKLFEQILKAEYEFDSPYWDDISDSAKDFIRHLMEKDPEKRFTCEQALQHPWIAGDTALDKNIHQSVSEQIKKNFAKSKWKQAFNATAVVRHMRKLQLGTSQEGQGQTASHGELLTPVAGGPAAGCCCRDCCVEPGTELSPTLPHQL
Chain of Interleukin-1 receptor-associated kinase 4 (Q9NWZ3 whole entry): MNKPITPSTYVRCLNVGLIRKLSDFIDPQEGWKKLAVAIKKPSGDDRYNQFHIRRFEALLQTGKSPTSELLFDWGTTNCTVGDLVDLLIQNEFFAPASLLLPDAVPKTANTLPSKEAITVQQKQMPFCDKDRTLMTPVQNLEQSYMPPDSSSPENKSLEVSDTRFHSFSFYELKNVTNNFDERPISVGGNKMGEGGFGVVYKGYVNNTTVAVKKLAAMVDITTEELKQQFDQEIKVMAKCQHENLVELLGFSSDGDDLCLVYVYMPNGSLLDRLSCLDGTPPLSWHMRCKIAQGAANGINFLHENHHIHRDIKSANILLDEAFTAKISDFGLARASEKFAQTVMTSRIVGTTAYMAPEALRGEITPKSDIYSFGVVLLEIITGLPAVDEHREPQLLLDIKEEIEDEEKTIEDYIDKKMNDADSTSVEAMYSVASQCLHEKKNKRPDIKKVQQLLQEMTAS

inhibition [1]: 14% | inhibition [2]: -4% | inhibition [3]: -5% | IC50 [4]: > 10 µM | inhibition [5]: 10% | inhibition [6]: -5% | inhibition [7]: 5% | IC50 [8]: 0.274 µM | inhibition [9]: -6% | IC50 [10]: > 10 µM | IC50 [11]: > 10 µM | inhibition [12]: -3% | IC50 [13]: > 10 µM | inhibition [14]: -3% | inhibition [15]: 7% | inhibition [16]: -10% | inhibition [17]: -2% | inhibition [18]: -10% | inhibition [19]: 0% | IC50 [20]: > 10 µM | inhibition [21]: 2% | inhibition [22]: -8% | inhibition [23]: -10% | inhibition [24]: -8% | IC50 [25]: > 10 µM | inhibition [26]: 2% | inhibition [27]: -1% | inhibition [28]: -2% | Tmax [29]: 30 min | bioavailability [30]: ~100% | Vd [31]: 1.8 L/kg
SMILES: O=C(Nc1nc2cccc(-c3ccc(CN4CCS(=O)(=O)CC4)cc3)n2n1)C1CC1 [FILGOTINIB]
inhibition [32]: Active | Activity [33]: Active | Activity [34]: Active | Activity [35]: Active | Activity [36]: Active | Activity [37]: 372.4 ng/mL | Activity [38]: 33.6 ng/mL | Activity [39]: inactive | Activity [40]: inactive
